According to US20150374709A1, “TETRA-SUBSTITUTED NDGA DERIVATIVES VIA ETHER BONDS AND CARBAMATE BONDS AND THEIR SYNTHESIS AND PHARMACEUTICAL USE” (ERIMOS PHARMACEUTICALS LLC, priority 2006, published 2015):

What was measured:
Leukemia cell lines = test: NCI DTP human tumor cell line screen, leukemia panel; assay type: cell-based; details: Leukemia (6 cell lines)
From the text: (§1) The United States National Cancer Institute (NCI) provides a developmental therapeutics program (DTP) (http://dtp.nci.nih.gov/branches/btb/ivelsp.html) to screen submitted substances in support of cancer drug discovery. The In Vitro Cell Line Screening Project (IVCLSP) is a dedicated service providing direct support to the DTP anticancer drug discovery program and is designed to screen up to 3,000 compounds per year for potential anticancer activity. The operation of this screen utilizes 60 different human tumor cell lines, representing leukemia, melanoma and cancers of the lung, colon, brain, ovary, breast, prostate, and kidney. The aim is to prioritize for farther evaluation, synthetic compounds or natural product samples showing selective growth inhibition or cell killing of particular tumor cell lines. This screen is unique in that the complexity of a 60 cell line dose response produced by a given compound results in a biological response pattern which can be utilized in pattern recognition algorithms (COMPARE program. See: http://dtp.nci.nih.gov/docs/compare/compare.html). Using these algorithms, it is possible to assign a putative mechanism of action to a test compound, or to determine that the response pattern is unique and not similar to that of any of the standard prototype compounds included in the NCI database. […]

Melanoma cell lines = test: NCI DTP human tumor cell line screen, melanoma panel; assay type: cell-based; details: Melanoma (8 cell lines)
From the text: as §1

[1] = Non-specific binding to 24-well assay plate without cells; assay type: in vitro ADME; details: single well of a 24-well assay plate without cells, nominal conc. 1.0 μM, single well of 24-well plate without cells
Method: To determine the extent of non-specific binding of the sample to the assay plate, the sample solution was incubated under the conditions described above in a single well of a 24-well assay plate. After 90 minutes, the sample was removed from each well for analysis. After all samples were collected, lucifer yellow solution was added to each monolayer at a final concentration of 100 μM. The inserts were placed in a new receiver plate containing transport buffer. After a 30 min. incubation on an orbital shaker (50 rpm) at 37° C., with ambient humidity and CO2, samples were removed from the receiver chamber to measure percent lucifer yellow flux.
The recovery of Compound A from the apical and basolateral chambers (mass balance) as well as from a single well of a 24-well culture plate without cells (non-specific binding) at the end of the incubation is reported in Table 9.

C[C@H](Cc1ccc(OCCCN2CCCCC2)c(OCCCN2CCCCC2)c1)[C@@H](C)Cc1ccc(OCCCN2CCCCC2)c(OCCCN2CCCCC2)c1 [Compound A, 1,4-bis{3,4-bis[3-(piperidin-1-yl)propoxy]phenyl}-2,3-dimethyl-(2R,3S)-butane]
Mean Growth Percent at 10 μM (Leukemia cell lines): −81.93%
Mean Growth Percent at 10 μM (Melanoma cell lines): −92.38%
recovery at 90 min, 1 μM [1]: 13%
